Read-outs that look alike come from different tables or passages of the source.
Key:
Assay in all cases: Broth two-fold serial dilution MIC test
[1] = tested on: Pseudomonas aeruginosa; assay type: cell-based, Pseudomonas aeruginosa (ATCC 15442); conditions: Table 2, Psae
Source text: (§1) A minimum inhibitory concentration (MIC) value is obtained using a broth, two-fold serial dilution test performed as follows: A stock solution or dispersion of the test compound, typically at a concentration of 1%, is made in a 5:3:2 solvent solution of acetone. methanol, and water. A volume of the stock solution is dispensed into culture media to give an initial starting test concentration of 500 ppm compound.
(§2) When the test is ready to be done, each vessel in the dilution series, except the first vessel, contains an equal volume of compound free broth. The first vessel contains twice the volume of broth with the starting concentration of test compound. One half of the broth from the first vessel is transferred to the second vessel- After being mixed, one half the resulting volume is removed from the second vessel and transferred to the third vessel. The entire cycle is repeated sufficiently to give a series of concentrations amounting to 500, 250, 125, 63, 31, 16, 8, and 4, 2, 1, 0.5, 0.25 ppm respectively.
(§3) Each vessel is then inoculated with a cell suspension of the appropriate test organism. Bacteria are grown in broth, fungi on agar slants for a time and at a temperature appropriate to the species being tested, and algae are a mixture of green algae and blue-green bacteria grown in a nutrient media. At the end of the growth period, in the case of bacteria, the broth is vortexed to disperse the cells.
(§4) In the case of fungi, the spores are harvested by pipetting water onto the slant and dislodging the spores with a sterile loop. The cell/spore suspension is standardized by controlling incubation time, temperature, and the volume of the diluent. The suspension is then used to inoculate the vessels containing the broth compound.
(§5) The vessels are then incubated at the appropriate temperature. After the incubation, the vessels are examined for growth/no growth. The minimum inhibitory concentration (MIC) is defined as the lowest concentration of compound that results in complete inhibition of growth of the test organism.
1. Pseudomonas aeruginosa

[2] = tested on: Escherichia coli; assay type: cell-based, Escherichia coli (ATCC 11229); conditions: Table 2, Ecol
Source text: as §1, §2, §3, §4, §5

[3] = tested on: Staphylococcus aureus; assay type: cell-based, Staphylococcus aureus (ATCC 6538); conditions: Table 2, Saur
Source text: as §1, §2, §3, §4, §5
2. Staphylococcus aureus

[4] = tested on: Aspergillus niger; assay type: cell-based, Aspergillus niger (ATCC 6275); conditions: Table 2, Anig, TSB media
Source text: as §1, §2, §3, §4, §5
4. Aspergillus niger 6275 Anig

[5] = Pseudomonas aeruginosa, M9G media, read-out: MIC
[6] = Pseudomonas aeruginosa, TSB media, read-out: MIC
[7] = Staphylococcus aureus, M9G media, read-out: MIC
[8] = Staphylococcus aureus, TSB media, read-out: MIC
[9] = Escherichia coli, M9G media, read-out: MIC
[10] = Aspergillus niger, read-out: MIC
[11] = Escherichia coli, TSB media, read-out: MIC

CCCCCCCCCCCCCCCC[N+]1(CC#CI)CC(C)OC(C)C1 (stereo not shown) [Compound 46, 4-hexadecyl-4-(3-iodopropargyl)-2,6-dimethylmorpholinium 4-methylbenzenesulfonate]
MIC [1, 5]: 16 µg/mL
MIC [1, 6]: 16 µg/mL
MIC ([2]; M9G media): 8 ppm
MIC ([2]; TSB media): 8 ppm
MIC [3, 7]: < 0.25 µg/mL
MIC [3, 8]: < 0.25 µg/mL
MIC [4]: 2 ppm

CCCCCCCCCCCCCCCC[N+]1(CC#CI)CC(C)OC(C)C1 (stereo not shown) [Compound 47, 4-hexadecyl-4-(3-iodopropargyl)-2,6-dimethylmorpholinium benzenesulfonate]
MIC ([1]; M9G media): 8 ppm
MIC ([1]; TSB media): 8 ppm
MIC ([2]; M9G media): 2 ppm
MIC ([2]; TSB media): 2 ppm
MIC ([3]; M9G media): < 0.25 ppm
MIC ([3]; TSB media): < 0.25 ppm
MIC [4]: 0.5 ppm

CCCCCCCCCCCCCCCC[N+]1(CC#CI)CC(C)OC(C)C1 (stereo not shown) [Compound 48, 4-hexadecyl-4-(3-iodopropargyl)-2,6-dimethylmorpholinium methanesulfonate]
MIC ([1]; M9G media): 8 ppm
MIC ([1]; TSB media): 8 ppm
MIC ([2]; M9G media): 2 ppm
MIC ([3]; M9G media): < 0.25 ppm
MIC ([3]; TSB media): 0.5 ppm
MIC [4]: 1 ppm

CCCCCCCCCCCCCCCC[N+]1(CC#CI)CCOCC1 [Compound 49, 4-hexadecyl-4-(3-iodopropargyl)-morpholinium 4-methylbenzenesulfonate]
MIC ([1]; M9G media): 8 ppm
MIC ([1]; TSB media): 8 ppm
MIC ([2]; M9G media): 1 ppm
MIC ([2]; TSB media): 2 ppm
MIC ([3]; M9G media): < 0.25 ppm
MIC ([3]; TSB media): 0.5 ppm
MIC [4]: 1 ppm

CCCCCCCCCCCCCCCC[N+]1(CC#CI)CCOCC1 [Compound 50, 4-hexadecyl-4-(3-iodopropargyl)-morpholinium benzenesulfonate]
MIC ([1]; M9G media): 8 ppm
MIC ([1]; TSB media): 8 ppm
MIC ([2]; M9G media): 1 ppm
MIC ([2]; TSB media): 1 ppm
MIC ([3]; M9G media): < 0.25 ppm
MIC ([3]; TSB media): 0.5 ppm
MIC [4]: 0.5 ppm

CCCCCCCCCCCCCC[N+]1(CC#CI)CCCCC1C (stereo not shown) [Compound 51, 1-(tetradecyl)-1-(3-iodopropargyl)-2-methylpiperidinium benzenesulfonate]
MIC ([1]; M9G media): 16 ppm
MIC ([1]; TSB media): 16 ppm
MIC [2, 9]: 4 µg/mL
MIC ([2]; TSB media): 2 ppm
MIC ([3]; M9G media): < 0.25 ppm
MIC ([3]; TSB media): < 0.25 ppm
MIC [4, 10]: 0.5 µg/mL

CCCCCCCCCCCCCC[N+]1(CC#CI)CCC(C)CC1 (stereo not shown) [Compound 52, 1-(tetradecyl)-1-(3-iodopropargyl)-4-methylpiperidinium benzenesulfonate]
MIC [1, 5]: 16 µg/mL
MIC [1, 6]: 16 µg/mL
MIC [2, 9]: 8 µg/mL
MIC [2, 11]: 2 µg/mL
MIC [3, 7]: < 0.25 µg/mL
MIC [3, 8]: < 0.25 µg/mL
MIC [4, 10]: < 0.25 µg/mL

CCCCCCCCCCCCCC[N+]1(CC#CI)CC=CCC1 (stereo not shown) [Compound 53, 1-(tetradecyl)-1-(3-iodopropargyl)-1,2,3,6-tetrahydropyridinium benzenesulfonate]
MIC [1, 5]: 8 µg/mL
MIC [1, 6]: 16 µg/mL
MIC [2, 9]: 2 µg/mL
MIC [2, 11]: 1 µg/mL
MIC [3, 7]: < 0.25 µg/mL
MIC [3, 8]: < 0.25 µg/mL
MIC [4, 10]: < 0.25 µg/mL

CCCCCCCCCCCCCC[N+]1(CC#CI)CCCCC1C (stereo not shown) [Compound 54, 1-(tetradecyl)-1-(3-iodopropargyl)-2-methylpiperidinium 4methylbenzenesulfonate]
MIC ([1]; M9G media): 250 ppm
MIC ([1]; TSB media): 125 ppm
MIC ([2]; M9G media): 8 ppm
MIC ([2]; TSB media): 16 ppm
MIC ([3]; M9G media): 1 ppm
MIC ([3]; TSB media): 8 ppm
MIC [4]: 1 ppm

CCCCCCCCCCCCCC[N+]1(CC#CI)CCCCC1C (stereo not shown) [Compound 55, 1-(tetradecyl)-1-(3-iodopropargyl)-2-methylpiperidinium methanesulfonate]
MIC ([1]; M9G media): 125 ppm
MIC ([1]; TSB media): 125 ppm
MIC ([2]; M9G media): 4 ppm
MIC ([2]; TSB media): 16 ppm
MIC ([3]; M9G media): 1 ppm
MIC ([3]; TSB media): 8 ppm
MIC [4]: 1 ppm

CCCCCCCCCCCCCC[N+]1(CC#CI)C=NCC1.O=S(=O)([O-])c1ccccc1 (stereo not shown) [Compound 56, 1-(tetradecyl)-1-(3-iodopropargyl)-imidazolinium benzenesulfonate]
MIC ([1]; M9G media): 8 ppm
MIC ([1]; TSB media): 63 ppm
MIC ([2]; M9G media): < 0.25 ppm
MIC ([2]; TSB media): < 0.25 ppm
MIC ([3]; M9G media): < 0.25 ppm
MIC ([3]; TSB media): < 0.25 ppm
MIC [4]: < 0.25 ppm

— patent US5354862A, “Preparation and the use of halopropargylated cyclic quaternary ammonium compounds as antimicrobial agents” (Rohm and Haas Company, priority 1993, dated 1994)
